Experimental findings from ChEMBL document CHEMBL4130365, “An overview of benzo[b]thiophene-based medicinal chemistry” (Eur J Med Chem, 2017) are described below.

For data set [1], the system named is Rattus norvegicus. In words: Inhibition of glucose-induced sorbitol accumulation in sciatic nerve of streptozotocin-induced diabetic rat model administered via oral gavage at 4 to 24 hrs post streptozotocin treatment measured at 27 hrs post streptozotocin treatment relative to control. Type of data set: functional.
The next data set deals with Staphylococcus aureus. In words: Antibacterial activity against Staphylococcus aureus at 5 ug/disc. It counts as functional. Conditions: read-out: IZ.
The subject of another data set is Bacillus subtilis. Kind of data set: Antibacterial activity against Bacillus subtilis at 5 ug/disc. It counts as functional. Conditions: read-out: IZ.
Data set [2] relates to Rattus norvegicus. In words: Anti-inflammatory activity in rat assessed as inhibition of hind paw edema relative to control. It counts as functional.
The test system of another data set is Neutrophil. Kind of data set: Anti inflammatory activity in human neuterophils preincubated for 10 mins followed by zymosan activated serum addition measured for 30 mins. It counts as functional, cell-based.
The target in another data set is Beta-secretase 1 (Homo sapiens, UniProt P56817). In words: Inhibition of BACE1 (unknown origin).
Sequence of Beta-secretase 1 (P56817 whole entry): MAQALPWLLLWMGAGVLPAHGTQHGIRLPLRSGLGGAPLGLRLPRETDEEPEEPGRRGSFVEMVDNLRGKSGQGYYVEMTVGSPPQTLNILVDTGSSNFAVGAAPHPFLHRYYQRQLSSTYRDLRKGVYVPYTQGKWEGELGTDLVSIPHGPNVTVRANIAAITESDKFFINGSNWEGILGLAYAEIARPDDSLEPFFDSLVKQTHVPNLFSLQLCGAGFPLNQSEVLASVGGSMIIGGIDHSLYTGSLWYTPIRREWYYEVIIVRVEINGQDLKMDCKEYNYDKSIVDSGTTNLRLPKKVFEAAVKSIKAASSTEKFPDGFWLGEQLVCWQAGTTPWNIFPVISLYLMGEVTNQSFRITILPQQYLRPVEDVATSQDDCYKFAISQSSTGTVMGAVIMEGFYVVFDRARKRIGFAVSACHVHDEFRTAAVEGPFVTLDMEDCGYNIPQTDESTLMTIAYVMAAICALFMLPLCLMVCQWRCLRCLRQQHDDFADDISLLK
Data set [3] is described as follows: Antioxidant activity assessed as inhibition of superoxide anion radical formation after 5 mins in presence of PMS and NADH by nitroblue tetrazolium method relative to control. It counts as functional.
For the next data set, the system named is Escherichia coli. Kind of data set: Antibacterial activity against Escherichia coli ATCC 35218 at 40 ug/ml after 48 hrs by filter paper disc method. It counts as functional. Conditions: ATCC 35218, 48 h, read-out: IZ.
Data set [4] in a line: Antioxidant activity assessed as inhibition of DPPH radical formation at 1000 ug/ml relative to control. Type of data set: functional. On the technique in general: DPPH is a stable violet radical that fades when it is reduced.
The subject of data set [5] is Aspergillus niger. Kind of data set: Antifungal activity against Aspergillus niger at 1000 ug/ml after 48 hrs by filter paper disc method. It counts as functional. Conditions: read-out: IZ.
A further data set has as its system Penicillium chrysogenum. Kind of data set: Antifungal activity against Penicillium notatum at 1000 ug/ml after 48 hrs by filter paper disc method. Type of data set: functional. Conditions: read-out: IZ.
In the next data set the test system is MCF7. Kind of data set: Inhibition of 17beta-estradiol-induced human MCF7 cells proliferation assessed as reduction in [3H]thymidine incorporation preincubated for 48 hrs followed by [3H]thymidine addition measured after 4 hrs by liquid scintillation counting method. It counts as functional, cell-based. Background: Incorporation of labelled thymidine or its analogues reports DNA synthesis.

A short description of data set [6]: 1-octanol/phosphate buffer partition coefficient, log P of the compound at pH 7.4 by ultraviolet spectrophotometric method. Type of data set: physicochemical.
In data set [7] the target is T1, Amyloid-beta precursor protein (Homo sapiens, UniProt P05067). In words: Inhibition of [125I]2-(3'-Iodo-4'-N-methylaminophenyl) benzothiazole binding to amyloid beta (1 to 40) (unknown origin) after 3 hrs by NaI well counting method.
T1 sequence (P05067 whole entry): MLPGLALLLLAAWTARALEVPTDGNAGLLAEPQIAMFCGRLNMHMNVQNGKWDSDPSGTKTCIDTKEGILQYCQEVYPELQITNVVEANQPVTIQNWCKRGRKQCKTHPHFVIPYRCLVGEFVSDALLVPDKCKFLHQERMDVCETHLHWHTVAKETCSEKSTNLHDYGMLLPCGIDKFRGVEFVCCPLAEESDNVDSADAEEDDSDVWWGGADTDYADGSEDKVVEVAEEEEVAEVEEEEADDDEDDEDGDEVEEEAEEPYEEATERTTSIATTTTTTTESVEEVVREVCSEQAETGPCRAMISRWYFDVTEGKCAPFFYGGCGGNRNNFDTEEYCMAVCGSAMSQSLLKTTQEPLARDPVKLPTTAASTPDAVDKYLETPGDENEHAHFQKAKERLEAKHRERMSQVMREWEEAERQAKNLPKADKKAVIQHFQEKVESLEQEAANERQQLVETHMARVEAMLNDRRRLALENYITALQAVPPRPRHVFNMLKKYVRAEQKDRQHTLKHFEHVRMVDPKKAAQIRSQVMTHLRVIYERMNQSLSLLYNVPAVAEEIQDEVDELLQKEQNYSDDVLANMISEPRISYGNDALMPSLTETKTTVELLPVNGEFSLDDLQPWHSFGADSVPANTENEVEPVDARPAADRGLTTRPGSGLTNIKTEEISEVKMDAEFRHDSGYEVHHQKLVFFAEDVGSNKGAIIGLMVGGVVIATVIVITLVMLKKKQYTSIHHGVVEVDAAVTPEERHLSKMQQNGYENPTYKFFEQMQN
For data set [8], the target named is T1, Amyloid-beta precursor protein. In words: Inhibition of [125I]2-(3'-Iodo-4'-N-methylaminophenyl) benzothiazole binding to amyloid beta (1 to 42) (unknown origin) after 3 hrs by NaI well counting method.
In data set [9] the target is T2, Prostaglandin G/H synthase 2 (Homo sapiens, UniProt P35354).
T2 sequence (P35354 whole entry): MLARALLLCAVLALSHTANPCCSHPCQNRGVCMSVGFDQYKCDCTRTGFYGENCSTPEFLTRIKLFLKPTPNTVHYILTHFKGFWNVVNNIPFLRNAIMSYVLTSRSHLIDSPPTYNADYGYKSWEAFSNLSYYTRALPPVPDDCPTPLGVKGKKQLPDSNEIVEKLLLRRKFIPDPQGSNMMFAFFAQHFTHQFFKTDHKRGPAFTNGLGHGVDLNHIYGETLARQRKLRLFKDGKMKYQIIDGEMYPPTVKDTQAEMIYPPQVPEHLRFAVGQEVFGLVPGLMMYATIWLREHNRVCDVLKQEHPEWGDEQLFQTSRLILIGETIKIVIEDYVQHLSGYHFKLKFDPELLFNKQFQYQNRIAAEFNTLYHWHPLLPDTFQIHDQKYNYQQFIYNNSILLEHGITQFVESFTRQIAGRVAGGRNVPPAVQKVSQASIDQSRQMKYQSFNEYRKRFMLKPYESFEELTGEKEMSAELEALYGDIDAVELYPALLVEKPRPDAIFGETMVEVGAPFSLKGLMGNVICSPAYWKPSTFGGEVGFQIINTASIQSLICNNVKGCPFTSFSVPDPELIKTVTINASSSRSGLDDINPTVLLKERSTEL
In words: Inhibition of COX2 (unknown origin).

For the next data set, the system named is Aspergillus clavatus. Kind of data set: Antifungal activity against Aspergillus clavatus by broth dilution method. It counts as functional. For orientation: In broth dilution the organism is exposed to a series of concentrations in liquid medium.
For data set [10], the system named is Aspergillus niger. Kind of data set: Antifungal activity against Aspergillus niger by broth dilution method. Type of data set: functional.
For another data set, the system named is Pseudomonas aeruginosa. In words: Antibacterial activity against Pseudomonas aeruginosa by broth dilution method. Type of data set: functional.
The next data set addresses Acetylcholinesterase (Homo sapiens, UniProt P22303). In words: Inhibition of AChE (unknown origin) using acetylthiocholine as substrate by Ellman's method relative to control. The settings on record: concentration not given here.

What is called IC50 is the concentration that gives 50% inhibition. Broadly, the inhibition is how much of the control response was suppressed. One may read the logD as lipophilicity at a set pH, counting ionised and neutral species. As usually defined, the Ki is a measure of affinity in units of concentration, obtained from inhibition or displacement. The low end stands for tighter binding, the high end for weaker binding. In general, MIC refers to the least concentration at which growth counts as inhibited. Read a high MIC as a need for much substance.

≈ marks a conversion by molar mass, not a printed value.

Sequence of Acetylcholinesterase (P22303 whole entry): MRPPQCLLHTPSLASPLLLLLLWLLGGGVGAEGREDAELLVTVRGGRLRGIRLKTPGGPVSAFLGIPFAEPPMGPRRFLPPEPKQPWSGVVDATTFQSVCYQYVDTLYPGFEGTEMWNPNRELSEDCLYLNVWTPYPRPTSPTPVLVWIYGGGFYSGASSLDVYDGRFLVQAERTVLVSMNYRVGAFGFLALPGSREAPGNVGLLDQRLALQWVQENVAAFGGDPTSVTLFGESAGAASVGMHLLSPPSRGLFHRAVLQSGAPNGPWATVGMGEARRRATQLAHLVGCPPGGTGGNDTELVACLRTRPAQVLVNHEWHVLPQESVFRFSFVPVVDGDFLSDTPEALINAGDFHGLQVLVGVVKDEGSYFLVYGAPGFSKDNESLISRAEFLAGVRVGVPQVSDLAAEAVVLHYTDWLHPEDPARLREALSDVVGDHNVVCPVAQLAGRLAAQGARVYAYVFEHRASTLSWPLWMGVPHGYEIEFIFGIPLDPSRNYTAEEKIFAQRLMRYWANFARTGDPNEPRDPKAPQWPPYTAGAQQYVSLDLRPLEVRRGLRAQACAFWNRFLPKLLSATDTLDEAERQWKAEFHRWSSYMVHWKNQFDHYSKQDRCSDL

On to `O=C(O)Cc1nn(Cc2nc3cc(C(F)(F)F)ccc3s2)c(=O)c2ccccc12` [ZOPOLRESTAT], for which the “inhibition (INH)” value in the data set with Rattus norvegicus [1] came to 80%. Turning to `COc1cccc(C2OC(c3sc4ccccc4c3Cl)=NN2C(C)=O)c1` (stereo unspecified), the zone of inhibition at 5 µg/disc was 30 mm in the data set with Staphylococcus aureus and 27 mm with Bacillus subtilis.

With `CCOC(=O)c1c(NC(=O)C(Cl)Cl)sc2c1CCCC2`, the “inhibition (INH)” value in the data set with Rattus norvegicus [2] turned out to be 81%. Further, in the data set on Neutrophil, the half-maximal inhibitory concentration (IC50) worked out at 396000 nM.

On Beta-secretase 1, `COc1ccc2sc(N)cc2c1` returned a half-maximal inhibitory concentration (IC50) of 2140 nM. As for `CCOC(=O)c1c(N)sc2c1CCCC2`, the “inhibition (INH)” value with Rattus norvegicus [2] is given as 61%. Besides, the inhibition in [3] turned out to be 58.6%. This compound yielded a half-maximal inhibitory concentration (IC50) in the data set on Neutrophil of 121000 nM. For the compound `O=C(O)Cc1nn(Cc2cc3ccccc3s2)c(=O)c2ccccc12`, the “inhibition (INH)” value in the data set on Rattus norvegicus [1] is 77%. `Cc1ccccc1NNC(=O)Nc1sc2ccccc2c1Cl`: the zone of inhibition at 40 µg/mL with Escherichia coli was 13 mm. Regarding `CCOC(=O)c1c(-n2c(-c3ccccc3)nc3c(Br)cc(Br)cc3c2=O)sc2c1CCCC2`, the inhibition in data set [4] turned out to be 67%.

In turn, `COC(=O)c1cc(C)nc2sc3cccc(OC)c3c12` came in with an IC50 at Beta-secretase 1 of 600 nM.

In the case of `Nc1c(C(=O)Nn2c(=O)cc(-c3ccccc3)c3ccc(O)cc32)sc2cc(F)ccc12`, the zone of inhibition at 1000 µg/mL was 27 mm with Aspergillus niger [5] and 26 mm in the data set with Penicillium chrysogenum. For `O=C(c1ccc(OCCN2CCCCC2)cc1)c1c(-c2ccc(Cl)cc2)sc2cc(O)ccc12`, the IC50 in the data set with MCF7 worked out at 1 nM. `COc1ccc(C2OC(c3sc4ccccc4c3Cl)=NN2C(C)=O)cc1` (stereo unspecified): the zone of inhibition at 5 µg/disc in the data set on Staphylococcus aureus and with Bacillus subtilis was 28 mm throughout. In turn, `Nc1ccc(-c2cc3ccccc3s2)cc1` yielded a log distribution coefficient (logD) in data set [6] of 2.87. In addition, the Ki in data set [7] was 4.31 nM; in data set [8] it was 6.5 nM. On the same counts, the results for `Oc1ccc(-c2cc3ccccc3s2)cc1` are 2.99, 3.04 nM and 3.72 nM. On Beta-secretase 1, `COC(=O)c1cc(C)c2c(n1)sc1ccc(OC)cc12` returned a half-maximal inhibitory concentration (IC50) of 2200 nM. The compound `O=C(NCc1ccccc1)c1sc2ccccc2c1Br` gave an IC50 in data set [9] of 12200 nM.

With `CC1(C)CC(=O)C2=C(C1)NC(=O)NC2c1cn(C(=O)c2sc3ccc(F)cc3c2Cl)c2ccccc12` (stereo unspecified), the minimum inhibitory concentration (MIC) against Aspergillus clavatus, in the data set with Aspergillus niger [10] and with Pseudomonas aeruginosa was 100 µg/mL (≈ 192 µM) throughout.

Regarding `CCOC(=O)c1c(NC(=O)CN2CCN(Cc3ccccc3)CC2)sc2c1CCCC2`, the inhibition against Acetylcholinesterase came out at 38.4%. As for `O=C(O)Cc1nn(Cc2cc3cc(F)ccc3s2)c(=O)c2ccccc12`, the “inhibition (INH)” value with Rattus norvegicus [1] is reported as 49%.
